Legend:
cancer stem cells [1] = experiment: Viability of cancer stem cells under nutrient deprivation after PMCA or SERCA inhibition; assay type: cell-based
Method: In order to compare the viabilities of cancer cells and cancer stem cells under glucose deprivation, each of p-MDA-MB-231, p-MCF-7, s-MDA-MB-231 and s-MCF-7 cell lines, prepared in the same manner as described in Example 1, was added to a 96-well plate at a concentration of 5×10^3 cells/100 μL and cultured to a confluence of about 70%, and then the medium was replaced with a glucose-deprived in RPMI-1640 medium containing 10% FBS, and the cells were further cultured for 3 days. At each of 0, 12, 24, 36, 48, 60 and 72 hours, the viability of each of the cell lines was determined by crystal violet staining and an MTT (3-(4,5-dimethylthiazol-2-yl)-2,5-diphenyltetrazolium bromide) assay. In order to examine whether the calcium concentration regulatory ability of the cancer stem cells is changed when PMCA is inhibited under nutrient deprivation, the activity of PMCA and SERCA was inhibited by using caloxin (which is a calcium pump inhibitor) as an inhibitor of PMCA acting as Ca^2+-ATPase (calcium ATPase) in the plasma membrane and using thapsigargin which is an inhibitor of SERCA (sarco/endoplasmic reticulum Ca^2+-ATPase) acting as Ca^2+-ATPase (calcium ATPase), and then changes in the extracellular Ca^2+ concentrations of the cancer stem cells were measured.

cancer stem cells [2] = experiment: Extracellular Ca2+ concentration of cancer stem cells after PMCA or SERCA inhibition; assay type: cell-based; conditions: nutrient deprivation
Source text: In order to examine whether the calcium concentration regulatory ability of the cancer stem cells is changed when PMCA is inhibited under nutrient deprivation, the activity of PMCA and SERCA was inhibited by using caloxin (which is a calcium pump inhibitor) as an inhibitor of PMCA acting as Ca^2+-ATPase (calcium ATPase) in the plasma membrane and using thapsigargin which is an inhibitor of SERCA (sarco/endoplasmic reticulum Ca^2+-ATPase) acting as Ca^2+-ATPase (calcium ATPase), and then changes in the extracellular Ca^2+ concentrations of the cancer stem cells were measured.

cancer stem cells [3] = experiment: TUNEL assay (apoptosis, DNA fragmentation) in cancer stem cells under nutrient deprivation; assay type: cell-based; conditions: 10 μM
Method: In order to examine whether the reason why cancer stem cells show high viability under nutrient deprivation is because of their resistance to apoptosis, each of p-MDA-MB-231, p-MCF-7, s-MDA-MB-231 and s-MCF-7 cell lines, cultured under glucose deprivation for 40 hours in the same manner as described in Example 2, was collected and subjected to a TUNEL assay. In the TUNEL assay, the collected cells were fixed with 4% paraformaldehyde solution for 48 hours, and then stained using a Terminal Deoxynucleotidyl Transferase dUTP Nick end Labeling (TUNEL) kit according to the manufacturer's protocol, and the fluorescence images of the cells were acquired with a fluorescence microscope and analyzed using Zeiss LSM Image Browser software program. […]
(§1) In order to examine an effect which occurs when CaMK-2α signaling is inhibited, the cancer stem cells were treated with 10 μM of KN62 (1-[N,O-bis(5-isoquinolinesulfonyl)-N-methyl-L-tyrosyl]-4-phenylpiperazine) well known as an inhibitor of CaMK-2α, and then a TUNEL assay was performed in the same manner as described in Example 3.1 to examine apoptosis and DNA fragmentation. In addition, Western blotting was performed in the same manner as described in Example 3.2 to examine the expression of genes, and the viability of the cells was measured in the same manner as described in Example 2.

cancer stem cells [4] = experiment: Immunoblot analysis (Western blotting) of cancer stem cells under nutrient deprivation; assay type: cell-based; conditions: 10 μM
Method: In order to examine whether apoptosis-related proteins are involved in apoptotic resistance which is the reason why the cancer stem cells show high viability under nutrient deprivation, each of p-MDA-MB-231, p-MCF-7, s-MDA-MB-231 and s-MCF-7 cell lines, cultured under glucose deprivation for 40 hours in the same manner as described in Example 2, was collected and subjected to immunoblot analysis. The collected cells were washed twice with chilled PBS (phosphate buffered saline) buffer, and lysed with RIPA buffer to isolate protein. For the next experiment, the amount of the isolated protein was measured by a BCA assay. 20 μg of the protein obtained from each of the cell lines was electrophoresed on 8-10% SDS-polyacrylamide gel and transferred to a PVDF membrane using electricity. The protein-transferred PVDP membranes were treated with 5% skim milk at room temperature for 1 hour, and then incubated with a primary antibody against each of caspase-3, caspase-7, Bcl-2 and beta-actin (control) at 4° C. for 16 hours. The PVDP membranes incubated with the antibodies were washed three times with TBST buffer to remove unbound primary antibodies, and were further incubated with HPR-conjugated secondary antibodies at room temperature for 1 hour. After completion of the incubation, the membranes were washed with TBST buffer to completely remove the secondary antibodies, and were treated with ECL buffer and incubated for 3 minutes, followed by exposure to Kodak X-OMAT AR Film. […]
as §1

s-MDA-MB-231 = experiment: Tumor volume in breast cancer animal model injected with cancer stem cells (S231); assay type: in vivo, BALB/c nude mice; conditions: for tumor volume: in mm³ (unit assumed)
Method: (§2) In order to identify a therapeutic method effective against cancer stem cells, breast cancer animal models were constructed. For construction of the breast cancer animal models, each of breast cancer cells (p-MDA-MB-231 and p-MCF-7) and breast cancer stem cell lines (s-MDA-MB-231 and s-MCF-7) was cultured in vitro, and the cultured cells were injected into the upper left flank of 5-6-week-old BALB/c nude mice at a density of 1.0×10^7 cells/mouse. Then, the mice were housed at 22° C. under a 12-hr light/12-hr dark cycle for 7 days while they were fed with water and feed, thereby constructing breast cancer animal models.

p-MDA-MB-231 = experiment: Tumor volume in breast cancer animal model injected with ordinary cancer cells (P231); assay type: in vivo, BALB/c nude mice
Method: as §2

In the case of `C/C=C(/C)C(=O)O[C@H]1C(C)=C2[C@H]([C@@H]1OC(=O)CCCCCCC)[C@@](C)(OC(C)=O)C[C@H](OC(=O)CCC)[C@@]1(O)[C@H]2OC(=O)[C@@]1(C)O` [thapsigargin], the “viability of the cells” value (cancer stem cells [1]) is reported as “also high” and the “extracellular calcium concentration of the cancer stem cells” value (cancer stem cells [2]) is reported as “maintained at a high level”.

In the case of `CN([C@@H](Cc1ccc(OS(=O)(=O)c2cccc3cnccc23)cc1)C(=O)N1CCN(c2ccccc2)CC1)S(=O)(=O)c1cccc2cnccc12` [KN62, 1-[N,O-bis(5-isoquinolinesulfonyl)-N-methyl-L-tyrosyl]-4-phenylpiperazine], the “apoptosis (TUNEL assay)” value (cancer stem cells [3]) is reported as “inducing apoptosis”, the “expression of IP3R” value (cancer stem cells [4]) is reported as “inhibited” and the “expression of SERCA2” value (cancer stem cells [4]) is reported as “increased”. For the same compound, the “phosphorylation of NF-kB” value (cancer stem cells [4]) was “did not occur”.

Compound `O=CC[C@@H](O)[C@H](O)[C@H](O)CO` [2DG, 2-deoxyglucose] has a tumor volume (s-MDA-MB-231; S231, day 7, i.p. once a day, 2DG 500 mg/kg, metformin 250 mg/kg, caloxin 2al 200 mg/kg) of 228.5 ± 23, a tumor volume (s-MDA-MB-231; S231, day 10, same dosing) of 277.6 ± 21 and a tumor volume (s-MDA-MB-231; S231, day 13, same dosing) of 474.4 ± 31. For the same compound, the tumor volume (s-MDA-MB-231; S231, day 16, same dosing) was 539.2 ± 33, the tumor volume (s-MDA-MB-231; S231, day 19, same dosing) was 638.2 ± 49 and the tumor volume (s-MDA-MB-231; S231, day 22, same dosing) was 777.0 ± 35. It also gave a tumor volume (s-MDA-MB-231; S231, day 25, same dosing) of 911.6 ± 35, a tumor volume (s-MDA-MB-231; S231, day 28, same dosing) of 1077.4 ± 68 and a tumor volume (s-MDA-MB-231; S231, day 31, same dosing) of 1290.6 ± 72. The tumor volume (s-MDA-MB-231; S231, day 34, same dosing) was 1722.1 ± 69, the tumor volume (s-MDA-MB-231; S231, day 37, same dosing) was 2471.7 ± 81 and the tumor volume (s-MDA-MB-231; S231, day 40, same dosing) was 3173.2 ± 105. For the same compound, the tumor volume (s-MDA-MB-231; S231, day 43, same dosing) was 4065.2 ± 119, the “tumor volume compared to control group (in words)” value (s-MDA-MB-231; cancer stem cell model) was “slightly decreased” and the tumor volume (p-MDA-MB-231; P231, day 7, i.p. once a day, 2DG 500 mg/kg, metformin 250 mg/kg, caloxin 2al 200 mg/kg, in mm³ (unit assumed)) was 219.1 ± 35. The tumor volume (p-MDA-MB-231; P231, day 10, same dosing) was 302 ± 49, the tumor volume (p-MDA-MB-231; P231, day 13, same dosing, in mm³ (unit assumed)) was 337.6 ± 47 and the tumor volume (p-MDA-MB-231; P231, day 16, same dosing, in mm³ (unit assumed)) was 388.6 ± 47. It also gave a tumor volume (p-MDA-MB-231; P231, day 19, same dosing, in mm³ (unit assumed)) of 440.7 ± 45, a tumor volume (p-MDA-MB-231; P231, day 22, same dosing, in mm³ (unit assumed)) of 513.4 ± 46 and a tumor volume (p-MDA-MB-231; P231, day 25, same dosing, in mm³ (unit assumed)) of 621.4 ± 50. For the same compound, the tumor volume (p-MDA-MB-231; P231, day 28, same dosing, in mm³ (unit assumed)) was 834.4 ± 48, the tumor volume (p-MDA-MB-231; P231, day 31, same dosing, in mm³ (unit assumed)) was 1142.7 ± 50 and the tumor volume (p-MDA-MB-231; P231, day 34, same dosing, in mm³ (unit assumed)) was 1547.4 ± 57. For the same compound, the tumor volume (p-MDA-MB-231; P231, day 37, same dosing, in mm³ (unit assumed)) was 1944.2 ± 64, the tumor volume (p-MDA-MB-231; P231, day 40, same dosing, in mm³ (unit assumed)) was 2359.0 ± 48 and the tumor volume (p-MDA-MB-231; P231, day 43, same dosing, in mm³ (unit assumed)) was 2866.1 ± 45.

From patent US20170312333A1, “Composition for Treating Cancer Stem Cells” (Industry-Academic Corporation Foundation, Yonsei University, priority 2014, published 2017)
